From PMC4672351, “Drug-Drug Interaction Potentials of Tyrosine Kinase Inhibitors via Inhibition of UDP-Glucuronosyltransferases” (Scientific Reports, 2015)
Entries after “also recorded” stand apart in the source; their conditions may differ.

Tests used:
UGT1A7 = biological target: T1, UGT1A7 (Homo sapiens, UniProt Q9HAW7); experiment: Inhibition of 4-MU glucuronidation by recombinant UGT1A7; conditions: for activity at 30 min, 100 µM: human, recombinant UGT1A7, pH 7.4, probe 4-MU
T1 sequence (Q9HAW7 26-530): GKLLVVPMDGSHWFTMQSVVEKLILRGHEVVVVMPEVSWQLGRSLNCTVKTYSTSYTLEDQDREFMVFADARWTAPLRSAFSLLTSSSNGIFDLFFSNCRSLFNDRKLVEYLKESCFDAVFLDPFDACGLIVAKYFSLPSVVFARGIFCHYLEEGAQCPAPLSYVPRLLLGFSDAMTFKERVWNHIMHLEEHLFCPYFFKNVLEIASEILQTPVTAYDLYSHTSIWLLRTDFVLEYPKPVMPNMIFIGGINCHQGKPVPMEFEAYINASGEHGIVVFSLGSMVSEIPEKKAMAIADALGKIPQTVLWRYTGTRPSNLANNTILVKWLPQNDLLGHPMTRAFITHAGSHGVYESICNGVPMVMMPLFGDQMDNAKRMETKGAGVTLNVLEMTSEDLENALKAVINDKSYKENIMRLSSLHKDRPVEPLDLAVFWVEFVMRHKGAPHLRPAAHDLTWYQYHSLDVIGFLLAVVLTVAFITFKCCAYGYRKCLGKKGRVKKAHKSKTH

[1] = ref [17][40][45] axitinib, [38][39][46] imatinib, [41][42] lapatinib, [43][44] vandetanib, cited from earlier work; for Cmax: clinical oral dose: axitinib 5 mg/12 h, imatinib 400 mg/24 h, lapatinib 1250 mg/24 h, vandetanib 300 mg/24 h; for Absorption Rate Constant (ka) / Fraction absorbed (Fa) / Oral CL / t1/2: clinical
UGT2B4 = biological target: T2, UGT2B4 (Homo sapiens, UniProt P06133); experiment: Inhibition of 4-MU glucuronidation by recombinant UGT2B4; type: in vitro ADME; conditions: recombinant UGT2B4, pH 7.4, probe 4-MU, 100 μM inhibitor, 4-MU substrate, read-out: Remaining activities (%) of UGT2B4
T2 construct: purchased BD Gentest (Woburn, MA); host or cells: baculovirus-infected insect cells
T2 sequence (P06133 24-528): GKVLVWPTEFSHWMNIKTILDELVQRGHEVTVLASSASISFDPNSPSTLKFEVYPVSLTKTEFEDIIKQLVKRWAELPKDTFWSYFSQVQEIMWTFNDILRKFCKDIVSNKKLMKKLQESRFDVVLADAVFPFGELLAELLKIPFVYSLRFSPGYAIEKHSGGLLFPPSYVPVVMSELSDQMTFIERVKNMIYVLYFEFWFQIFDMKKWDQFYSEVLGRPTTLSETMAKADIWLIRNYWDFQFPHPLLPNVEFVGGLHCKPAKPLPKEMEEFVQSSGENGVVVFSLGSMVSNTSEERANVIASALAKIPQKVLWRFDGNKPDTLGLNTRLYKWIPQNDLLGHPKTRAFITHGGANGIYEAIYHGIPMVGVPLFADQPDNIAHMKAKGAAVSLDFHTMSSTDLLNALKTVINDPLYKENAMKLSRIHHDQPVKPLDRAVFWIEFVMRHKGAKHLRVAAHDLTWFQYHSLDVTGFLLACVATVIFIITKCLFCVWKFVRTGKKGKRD

UGT1A3 = biological target: T3, UGT1A3 (Homo sapiens, UniProt P35503); experiment: Inhibition of 4-MU glucuronidation by recombinant UGT1A3; conditions: recombinant UGT1A3, pH 7.4, probe 4-MU
T3 sequence (P35503 29-534): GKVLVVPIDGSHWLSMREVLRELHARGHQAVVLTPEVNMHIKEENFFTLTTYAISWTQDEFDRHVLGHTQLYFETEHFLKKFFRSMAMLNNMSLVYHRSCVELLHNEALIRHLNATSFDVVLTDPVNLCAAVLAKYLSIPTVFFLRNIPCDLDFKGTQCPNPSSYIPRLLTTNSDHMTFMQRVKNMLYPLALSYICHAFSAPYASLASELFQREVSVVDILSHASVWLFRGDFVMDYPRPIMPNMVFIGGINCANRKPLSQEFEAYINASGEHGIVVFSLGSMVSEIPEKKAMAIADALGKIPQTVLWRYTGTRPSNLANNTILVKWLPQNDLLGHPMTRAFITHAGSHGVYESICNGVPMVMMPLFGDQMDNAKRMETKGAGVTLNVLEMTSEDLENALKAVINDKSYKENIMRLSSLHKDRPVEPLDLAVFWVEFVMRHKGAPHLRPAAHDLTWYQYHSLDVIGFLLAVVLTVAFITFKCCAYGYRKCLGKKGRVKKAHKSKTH

UGT2B15 = biological target: T4, UGT2B15 (Homo sapiens, UniProt P54855); experiment: Inhibition of 4-MU glucuronidation by recombinant UGT2B15; conditions: recombinant UGT2B15, pH 7.4, probe 4-MU
T4 sequence (P54855 24-530): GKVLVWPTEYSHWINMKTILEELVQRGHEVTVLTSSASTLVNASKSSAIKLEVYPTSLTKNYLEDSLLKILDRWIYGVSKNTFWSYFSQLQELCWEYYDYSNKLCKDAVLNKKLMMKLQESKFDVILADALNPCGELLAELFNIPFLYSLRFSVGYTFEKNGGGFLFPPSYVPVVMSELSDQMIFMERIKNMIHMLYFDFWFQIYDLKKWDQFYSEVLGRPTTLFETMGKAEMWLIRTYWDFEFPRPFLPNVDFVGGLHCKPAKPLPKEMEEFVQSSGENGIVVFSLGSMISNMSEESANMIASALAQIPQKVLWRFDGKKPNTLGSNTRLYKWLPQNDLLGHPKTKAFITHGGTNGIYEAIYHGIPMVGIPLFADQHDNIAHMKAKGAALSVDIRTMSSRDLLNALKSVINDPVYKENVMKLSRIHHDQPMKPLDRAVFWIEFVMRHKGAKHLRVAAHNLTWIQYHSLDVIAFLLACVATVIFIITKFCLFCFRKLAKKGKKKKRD

Row | Structure (SMILES) | IC50 (UGT1A7) [µM] | activity at 30 min, 100 µM (UGT1A7) [%] | Cmax [1] [µM] | Absorption Rate Constant (ka) [1] [h⁻¹] | Fraction absorbed (Fa) [1] | Oral CL [1] [L/h] | t1/2 [1] [h] | activity at 120 min, 100 µM (UGT2B4) [%] | activity at 75 min, 100 µM (UGT1A3) [%] | activity at 120 min, 100 µM (UGT2B15) [%] | inhibition type, UGT1A7 (UGT1A7; 4-MU substrate)
1 | CNC(=O)c1ccccc1Sc1ccc2c(/C=C/c3ccccn3)n[nH]c2c1 [Axitinib, axitinib] | 3.3 ± 0.7 | 25 ± 2.5 | 0.16 | 0.523 | 0.88 | 45 | 3.2 | 42.1 ± 1.6 | 47.8 ± 12.8 | 49.3 ± 5.2 | –
2 | CS(=O)(=O)CCNCc1ccc(-c2ccc3ncnc(Nc4ccc(OCc5cccc(F)c5)c(Cl)c4)c3c2)o1 [Lapatinib, lapatinib] | – | 37.7 ± 9.3 | 4.2 | 0.7 | 0.73 | 114 | 24 | 105.1 ± 0.2 | 96.5 ± 7.5 | 110 ± 3.1 | non-competitive; also recorded: noncompetitive
3 | COc1cc2c(Nc3ccc(Br)cc3F)ncnc2cc1OCC1CCN(C)CC1 [Vandetanib, vandetanib] | 38.9 ± 4.3 | 22.7 ± 2.7 | 3.32 | 0.3 | 0.935 | 13.2 | 456 | 80.8 ± 6.6 | 104 ± 2.1 | 79.2 ± 1.4 | –
